One assay addresses T1, TbPTR1 (Trypanosoma brucei brucei, UniProt O76290).
T1 sequence (O76290 1-268): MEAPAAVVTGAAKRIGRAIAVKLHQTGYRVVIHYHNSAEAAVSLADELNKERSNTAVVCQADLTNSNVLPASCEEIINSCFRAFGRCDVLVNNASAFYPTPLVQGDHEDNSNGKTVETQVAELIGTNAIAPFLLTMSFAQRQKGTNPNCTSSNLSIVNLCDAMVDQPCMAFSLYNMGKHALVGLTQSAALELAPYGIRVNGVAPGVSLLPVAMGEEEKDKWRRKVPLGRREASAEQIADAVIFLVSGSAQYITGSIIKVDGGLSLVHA
In words: TbPTR1 indirect (cytochrome c-coupled) enzyme assay. Particulars: for IC50: indirect assay, triplicate, SD within ± 10% of the value. The class given is biochemical. Here is the method: The in vitro assays used in the current study were based on those reported in the literature. As PTR1 enzymes use dihydrobiopterin (H2B) as a substrate and also require NADPH for the reaction, the reduction of H2B to tetrahydrobiopterin by PTR1 is nonenzymatically linked with the reduction of cytochrome c in this assay, which is detected at 550 nm. The formation of cyt c Fe^2+ results in an increase in the photometric readout. TbPTR1 and LmPTR1 activity was assayed in a buffer containing 20 mM sodium citrate (pH 6.0). The final reaction mixture contained the test compound at a range of concentrations and TbPTR1/LmPTR1 (6.0 nM/12 nM), H2B (0.3 μM/3 μM), cytochrome c (100 μM/100 μM), and NADPH (500 μM/500 μM). The final assay volume was 50 μL in 384-well clear plates (Greiner Bio-One, 781101). Compound screening was performed by the addition of the compound to the assay plates (in 100% DMSO), followed by the addition of 45 μL Reaction Mix (enzyme, H2B cytochrome c in 20 mM sodium citrate buffer). A pre-read was made at 550 nm using an EnVision Multilabel Reader 2103 (PerkinElmer Inc., US), followed by incubation of the assay plates at 30 °C for 10 min. The reaction was initiated by the addition of 5 μL of NADPH (5 mM in ultrapure water) followed by kinetically reading the assay plates at 550 nm using the EnVision Multilabel Reader at 10, 20, 30, 40, and 50 min. The slope of each assay well was calculated. The screening data were analyzed using ActivityBase (IDBS), and for outlier elimination in the control wells, the 3-σ method was applied. Based on the slope, the data were normalized to the positive control methotrexate for TbPTR1/LmPTR1 (1 μM/50 μM, yielding 100% inhibition) and negative controls (1% DMSO, yielding 0% inhibition), and % inhibition was calculated for all samples. The measurement at time 0 min was used to flag optically interfering samples. Each compound was tested in triplicate, and the pIC50 value, standard deviation, Hill slope, and minimum and maximum signals for each dose–response curve were obtained using a 4-parameter logistic fit in the XE module of Activity Base (IDBS), as also reported previously. ,

Assay [1] has as its system THP-1-derived macrophages. Nature of the assay: Cytotoxicity assay (MTT) on THP-1-derived macrophages. The format is cell-based, Human. The conditions noted are these: THP-1 CC50 vs T. brucei EC50. How it is done:
Human leukemia cell line THP-1 (ATCC TIB202) cells were cultured in RPMI-1640 medium supplemented with 10% heat-inactivated fetal bovine serum (FBS), 2 mM L-glutamine, 100 IU/mL penicillin/streptomycin, and 20 mM HEPES. The cell line was maintained in a humidified incubator at 37 °C with 5% CO2. Subcultures were performed every 3 days in 20 mL of media at a concentration of 2 × 10^5 cells/mL in a T75 flask. All cell culture reagents were purchased from Lonza Bioscience (Morrisville, NC).
The cytotoxicity of the compounds on THP-1-derived macrophages was assessed using the colorimetric MTT assay (3-(4,5-dimethylthiazol-2-yl)-2,5-diphenyl tetrazolium bromide) as described elsewhere. THP-1 cells were suspended in RPMI complete medium at a density of 1 × 10^6 cells/mL, and 100 μL/well was seeded in a 96-well plate. The cells were differentiated into macrophages by adding 40 ng/mL of phorbol-myristate 13-acetate (PMA, Sigma, Saint Louis, MI, USA) for 24 h, followed by replacement with fresh medium for another 24 h. Subsequently, the cells were incubated with 100 μL of compounds, ranging from 100 to 12.5 μM, diluted in RPMI complete medium. Each condition was tested in triplicate. After 72 h of incubation at 37 °C with 5% CO2, the medium was removed, and 200 μL of 0.5 mg/mL MTT solution diluted in RPMI was added. The plates were incubated for an additional 4 h, after which 160 μL of the media was removed and replaced with 160 μL of 2-propanol. Absorbance was read at 570 nm using a Synergy 2 Multi-Mode Reader (Biotek, Winooski, VT, USA). Cytotoxicity was evaluated by presenting the CC50 (the concentration of the drug that reduces cell viability by 50%) interval or by determining the CC50 value through nonlinear regression analysis using GraphPad Prism version 8.1.1 for Windows (GraphPad Software, San Diego, CA, USA). Results represent the average of at least three independent experiments.

On to `Nc1nc2ccc(C(=O)N(CCc3ccc(Cl)c(Cl)c3)c3ccccc3)cc2s1` [Compound 1e, 2-amino-N-(3,4-dichlorophenethyl)-N-phenylbenzo[d]thiazole-6-carboxamide], for which the inhibition at 50 µM at TbPTR1 (at 50 μM) turned out to be 18 ± 1%.

For the compound `Nc1nc2ccc(C(=O)NCCc3ccc(Br)cc3)cc2s1` [Compound 2e, 2-amino-N-(4-bromophenethyl)benzo[d]thiazole-6-carboxamide], the IC50 at TbPTR1 was determined as 2.9 µM.

In turn, `Nc1nc2ccc(C(=O)NCCc3cccc(Br)c3)cc2s1` [Compound 2d, 2-amino-N-(3-bromophenethyl)benzo[d]thiazole-6-carboxamide] displayed an IC50 against TbPTR1 of 2.4 µM.

In the case of `Nc1nc2ccccc2n1Cc1ccc(Cl)c(Cl)c1` [I, 1-(3,4-dichlorobenzyl)-1H-benzimidazol-2-amine, reference compound], on TbPTR1, inhibition was half-maximal at 0.39 µM (IC50).

In turn, `Nc1nc2ccc(C(=O)N(CCc3ccc(Cl)c(Cl)c3)C3CC3)cc2s1` [Compound 1b, 2-amino-N-cyclopropyl-N-(3,4-dichlorophenethyl)benzo[d]thiazole-6-carboxamide] showed an IC50 at TbPTR1 of 17.1 µM. The “Selectivity index toward THP-1 cells” value in assay [1] was 5−10.

As to `Nc1nc2ccc(CN(Cc3ccc(Cl)c(Cl)c3)C3CC3)cc2s1` [Compound 1d, 6-((cyclopropyl(3,4-dichlorobenzyl)amino)methyl)benzo[_d_]thiazol-2-amine], the IC50 against TbPTR1 came out at 3.3 µM.

For the compound `Nc1nc2ccc(C(=O)NCCc3ccc(Cl)cc3)cc2s1` [Compound 2c, 2-amino-N-(4-chlorophenethyl)benzo[d]thiazole-6-carboxamide], the IC50 at TbPTR1 worked out at 4.8 µM.

Turning to `Nc1nc2ccc(C(=O)NCCc3cccc(Cl)c3)cc2s1` [Compound 2b, 2-amino-N-(3-chlorophenethyl)benzo[d]thiazole-6-carboxamide], at TbPTR1, the IC50 was determined as 3.9 µM.

At TbPTR1, `Nc1nc2ccc(C(=O)N(Cc3ccc(Cl)c(Cl)c3)C3CC3)cc2s1` [Compound 1c, 2-amino-N-cyclopropyl-N-(3,4-dichlorobenzyl)benzo[d]thiazole-6-carboxamide] registered a half-maximal inhibitory concentration (IC50) of 71.6 µM.

`Nc1nc2ccc(C(=O)NCCc3ccccc3)cc2s1` [Compound 2a, 2-amino-N-phenethylbenzo[d]thiazole-6-carboxamide] displayed a 50% inhibitory concentration (IC50) at TbPTR1 of 14.5 µM.

`Nc1nc2ccc(C(=O)NCCc3ccc(Cl)c(Cl)c3)cc2s1` [Compound 1a, 2-amino-N-(3,4-dichlorophenethyl)benzo[d]thiazole-6-carboxamide] had a half-inhibitory concentration (IC50) at TbPTR1 of 7.6 µM. Further, the “Selectivity index toward THP-1 cells” value in assay [1] is recorded as “over 16”.

The term inhibition denotes the change of the read-out against control, counted positive when it falls. Low readings indicate a response near the control, high ones a response far below the control. The IC50 is the concentration that inhibits the measured activity by half. Read a high IC50 as weaker potency.
